15 molecules from BindingDB's records for doi:10.1021/jm000468c (Abbott Laboratories, 2001) can be followed below.

In general, IC50 refers to the midpoint of a concentration-inhibition curve. A high value points to lower potency.

SMILES strings stand for the structures.

The assay in a line: Inhibitory activity was determined against Neuraminidase A from influenza virus A/Tokyo/3/67.

Regarding `CC(C)N(C(=O)N1C[C@H](C(=O)O)[C@H](N=C(N)N)C1)C(C)C` [1-Diisopropylcarbamoyl-4-guanidino-pyrrolidine-3-carboxylic acid], half-maximal inhibition (IC50) required 13 µM. `CCC(CC)C(=O)N1C[C@H](N)[C@H](C(=O)O)C1` [4-Amino-1-(2-ethyl-butyryl)-pyrrolidine-3-carboxylic acid]: the IC50 came to 22 µM. Then `CCN(C(=O)N1C[C@H](N)[C@H](C(=O)O)C1)C(C)C` [4-Amino-1-(ethyl-isopropyl-carbamoyl)-pyrrolidine-3-carboxylic acid], with 1.6 µM; and `CC(C)N(CCO)C(=O)N1C[C@H](N)[C@H](C(=O)O)C1` [4-Amino-1-[(2-hydroxy-ethyl)-isopropyl-carbamoyl]-pyrrolidine-3-carboxylic acid], with 21 µM; and `CC(C)N(CCCN)C(=O)N1C[C@H](N)[C@H](C(=O)O)C1` [4-Amino-1-[(3-amino-propyl)-isopropyl-carbamoyl]-pyrrolidine-3-carboxylic acid], with 46 µM. To `CC(C)N(CCCC(=O)O)C(=O)N1C[C@H](N)[C@H](C(=O)O)C1` [4-Amino-1-[(3-carboxy-propyl)-isopropyl-carbamoyl]-pyrrolidine-3-carboxylic acid] belongs 19 µM; to `CC(C)N(CCCO)C(=O)N1C[C@H](N)[C@H](C(=O)O)C1` [4-Amino-1-[(3-hydroxy-propyl)-isopropyl-carbamoyl]-pyrrolidine-3-carboxylic acid], 2.1 µM; to `CC(C)N(CCCCC(=O)O)C(=O)N1C[C@H](N)[C@H](C(=O)O)C1` [4-Amino-1-[(4-carboxy-butyl)-isopropyl-carbamoyl]-pyrrolidine-3-carboxylic acid], 1.3 µM. Then `CC(C)N(CCCCCO)C(=O)N1C[C@H](N)[C@H](C(=O)O)C1` [4-Amino-1-[(5-hydroxy-pentyl)-isopropyl-carbamoyl]-pyrrolidine-3-carboxylic acid], with 2 µM; and `CC(C)N(CCc1ccccn1)C(=O)N1C[C@H](N)[C@H](C(=O)O)C1` [4-Amino-1-[isopropyl-(2-pyridin-2-yl-ethyl)-carbamoyl]-pyrrolidine-3-carboxylic acid], with 1.3 µM; and `CCN(CC)C(=O)N1C[C@H](N)[C@H](C(=O)O)C1` [4-Amino-1-diethylcarbamoyl-pyrrolidine-3-carboxylic acid], with 25 µM. The molecule `CC(C)N(C(=O)N1C[C@H](N)[C@H](C(=O)O)C1)C(C)C` [4-Amino-1-diisopropylcarbamoyl-pyrrolidine-3-carboxylic acid] displayed an IC50 of 4 µM. As to `CCCN(CCC)C(=O)N1C[C@H](N)[C@H](C(=O)O)C1` [4-Amino-1-dipropylcarbamoyl-pyrrolidine-3-carboxylic acid], the IC50 was 32 µM. Compared with the last molecule, the IC50 is about 8-fold higher. Then `CCN(C(=O)N1C[C@@H](C(=O)O)[C@@H](N)[C@@H]1CNC(C)=O)C(C)C` [5-(Acetylamino-methyl)-4-amino-1-(ethyl-isopropyl-carbamoyl)-pyrrolidine-3-carboxylic acid], with 7.5 µM; and `CC(C)(C)OC(=O)N1C[C@@H](N)[C@@H](C(=O)O)C1` [A-87380], with 50 µM.
